In US20230100367A1, “METHODS OF TREATING CDGSH IRON SULFUR DOMAIN 2 INSUFFICIENCY-ASSOCIATED DISORDERS” (National Yang Ming Chiao Tung University, priority 2021, published 2023):

System: Cisd2 promoter with firefly luciferase reporter (HEK293-CISD2)
Test: Cisd2-luciferase reporter assay
Format: cell-based
Conditions: Homo sapiens; HEK293-CISD2 cells, 24 h incubation, luciferase activity
Protocol: Compounds 1-35 were tested for increasing the level of Cisd2 in human embryonic kidney cells 293 (HEK293), a transfected cell line expressing Cisd2, using the Cisd2-luciferase reporter assay as described below.
The transfected HEK293 cells stably expressed Cisd2 promoter with firefly luciferase reporter (“HEK293-CISD2”). They were kept in Dulbecco's modified Eagle's medium (“DMEM”) (Gibco, New York, N.Y.). Culture medium was supplemented with 10% heat-inactivated fetal bovine serum (“FBS”), 2 mM L-Glutamine, 1 mM sodium pyruvate, 0.1% MEM Non-Essential Amino Acids, 1 μg/ml puromycin and 1% penicillin/streptomycin (HyClone, Logan, Utah). The cells were maintained at 37° C. in an incubator (Thermo Fisher Scientific, Waltham, Mass.) with an atmosphere of 5% CO2. The stably transfected cells were seeded in 384-well plates at a density of 3×10^3 cells/well. After incubation with a tested compound at 37° C. for 24 h, ONE-Glo™ Luciferase Assay System (Promega, Madison, Wis.) was added at room temperature for 10 minutes to detect any luciferase activity. Luminescence intensity was registered using plate reader BioTek Synergy Neo2™ (Agilent, Santa Clara, Calif.).
EC50 values in this table are presented in […] classes, i.e., A: <1 μM and B: 1 μM-10 μM.

Row | SMILES | EC50 [µM]
1 | Cc1ccc(NC(=O)c2sc(N)c(C#N)c2C)c(C)c1 [Compound 2, 5-Amino-4-cyano-N-(2,4-dimethylphenyl)-3-methylthiophene-2-carboxamide] | 1 to 10
2 | COC(=O)c1c(N)sc(C(=O)Nc2cccnc2)c1C [Compound 3, Methyl 2-amino-4-methyl-5-(pyridin-3-ylcarbamoyl)thiophene-3-carboxylate] | < 1
3 | COC(=O)c1c(N)sc(C(=O)OC(C)(C)C)c1C [Compound 4, 2-tert-Butyl 4-methyl 5-amino-3-methylthiophene-2,4-dicarboxylate] | 1 to 10
4 | CCOC(=O)c1c(N)sc(C(=O)Nc2ccc(F)cc2)c1C [Compound 5, Ethyl 2-amino-5-[(4-fluorophenyl)carbamoyl]-4-methylthiophene-3-carboxylate] | < 1
5 | COC(=O)c1c(N)sc(C(=O)Nc2ccc(OC)cc2)c1C [Compound 6, Methyl 2-amino-5-[(4-methoxyphenyl)carbamoyl]-4-methylthiophene-3-carboxylate] | < 1
6 | COC(=O)c1c(N)sc(C(=O)Nc2ccccc2C)c1C [Compound 7, Methyl 2-amino-4-methyl-5-[(2-methylphenyl)carbamoyl]thiophene-3-carboxylate] | < 1
7 | COC(=O)c1c(N)sc(C(=O)Nc2ccc(C)cc2)c1C [Compound 8, Methyl 2-amino-4-methyl-5-[(4-methylphenyl)carbamoyl]thiophene-3-carboxylate] | < 1
8 | COC(=O)c1c(N)sc(C(=O)Nc2ccccc2)c1C [Compound 9, Methyl 2-amino-4-methyl-5-(phenylcarbamoyl)thiophene-3-carboxylate] | < 1
9 | COC(=O)c1c(N)sc(C(=O)Nc2ccc(C(F)(F)F)cc2)c1C [Compound 10, Methyl 2-amino-4-methyl-5-{-[4-(trifluoromethyl)phenyl]carbamoyl}thiophene-3-carboxylate] | < 1
10 | COC(=O)c1c(N)sc(C(=O)Nc2ccc(N(C)C)cc2)c1C [Compound 11, Methyl 2-amino-5-{-[4-(dimethylamino)phenyl]carbamoyl}-4-methylthiophene-3-carboxylate] | < 1
11 | Cc1ccc(NC(=O)c2sc(N)c(C(N)=O)c2C)c(C)c1 [Compound 12, 5-Amino-N^2-(2,4-dimethylphenyl)-3-methylthiophene-2,4-dicarboxamide] | < 1
12 | COC(=O)c1c(N)sc(C(=O)Nc2ccc(F)cc2)c1C [Compound 13, Methyl 2-amino-5-[(4-fluorophenyl)carbamoyl]-4-methylthiophene-3-carboxylate] | < 1
13 | Cc1ccc(NC(=O)c2sc(N)c(C(=O)OC(C)C)c2C)c(C)c1 [Compound 14, Propan-2-yl 2-amino-5-[(2,4-dimethylphenyl)carbamoyl]-4-methylthiophene-3-carboxylate] | 1 to 10
14 | COC(=O)c1c(N)sc(C(=O)Nc2ccc(C#N)cc2)c1C [Compound 15, Methyl 2-amino-5-[(4-cyanophenyl)carbamoyl]-4-methylthiophene-3-carboxylate] | < 1
15 | COC(=O)c1c(N)sc(C(=O)Nc2cccc(C)c2)c1C [Compound 16, Methyl 2-amino-4-methyl-5-[(3-methylphenyl)carbamoyl]thiophene-3-carboxylate] | < 1
16 | COC(=O)c1c(N)sc(C(=O)Nc2c(C)cc(C)cc2C)c1C [Compound 17, Methyl 2-amino-4-methyl-5-[(2,4,6-trimethylphenyl)carbamoyl]thiophene carboxylate] | 1 to 10
17 | COC(=O)c1c(N)sc(C(=O)Nc2cc(OC)c(OC)c(OC)c2)c1C [Compound 18, Methyl 2-amino-4-methyl-5-[(3,4,5-trimethoxyphenyl)carbamoyl]thiophene-3-carboxylate] | 1 to 10

Row | SMILES | EC50 [µM]
18 | COC(=O)c1c(N)sc(C(=O)Nc2nccs2)c1C [Compound 19, Methyl 2-amino-4-methyl-5-(1,3-thiazol-2-ylcarbamoyl)thiophene-3-carboxylate] | < 1
19 | COC(=O)c1c(N)sc(C(=O)Nc2cccc(OC)c2)c1C [Compound 20, Methyl 2-amino-5-[(3-methoxyphenyl)carbamoyl]-4-methylthiophene-3-carboxylate] | < 1
20 | COC(=O)c1c(N)sc(C(=O)Nc2ccc(O)cc2)c1C [Compound 21, methyl 2-amino-5-[(4-hydroxyphenyl)carbamoyl]-4-methylthiophene-3-carboxylate] | < 1
21 | COC(=O)c1cc(C(=O)Nc2ccc(C)cc2C)sc1N [Compound 22, Methyl 2-amino-5-[(2,4-dimethylphenyl)carbamoyl]thiophene-3-carboxylate] | 1 to 10
22 | COC(=O)c1c(N)sc(C(=O)Nc2ccc(C)cc2C)c1Br [Compound 23, methyl 2-amino-4-bromo-5-[(2,4-dimethylphenyl)carbamoyl]thiophene-3-carboxylate] | < 1
23 | COC(=O)c1c(N)sc(C(=O)Cc2ccc(C)cc2C)c1C [Compound 24, methyl 2-amino-5-[(2,4-dimethylphenyl)acetyl]-4-methylthiophene-3-carboxylate] | 1 to 10
24 | CCOC(=O)c1c(N)sc(C(=O)Nc2ccc(C)cc2C)c1C [Compound 25, Ethyl 2-amino-5-[(2,4-dimethylphenyl)carbamoyl]-4-methylthiophene-3-carboxylate] | < 1
25 | CCOC(=O)c1cccc(NC(=O)c2sc(N)c(C(=O)OCC)c2C)c1 [Compound 26, Ethyl 2-amino-5-{[3-(ethoxycarbonyl)phenyl]carbamoyl}-4-methylthiophene-3-carboxylate] | 1 to 10
26 | Cc1ccc(NC(=O)c2sc(N)c(C(=O)O)c2C)c(C)c1 [Compound 27, 2-amino-5-[(2,4-dimethylphenyl)carbamoyl]-4-methylthiophene-3-carboxylic acid] | < 1
27 | Cc1ccc(NC(=O)c2sc(N)c(C(=O)NCC#N)c2C)c(C)c1 [Compound 28, 5-amino-N^4-(cyanomethyl)-N^2-(2,4-dimethylphenyl)-3-methylthiophene-2,4-dicarboxamide] | 1 to 10
28 | Cc1ccc(NC(=O)c2sc(N)c(C(=O)CO)c2C)c(C)c1 [Compound 29, 5-amino-N-(2,4-dimethylphenyl)-4-(hydroxyacetyl)-3-methylthiophene-2-carboxamide] | < 1
29 | CC(=O)c1c(N)sc(C(=O)Nc2ccc(C)cc2C)c1C [Compound 30, 4-acetyl-5-amino-N-(2,4-dimethylphenyl)-3-methylthiophene-2-carboxamide] | < 1
30 | CC(=O)c1c(N)sc(C(=O)Nc2ccccc2)c1C [Compound 31, 4-Acetyl-5-amino-3-methyl-N-phenylthiophene-2-carboxamide] | < 1
31 | CC(=O)c1c(N)sc(C(=O)Nc2ccc(F)cc2)c1C [Compound 32, 4-Acetyl-5-amino-N-(4-fluorophenyl)-3-methylthiophene-2-carboxamide] | < 1
32 | COC(=O)c1c(NC(C)=O)sc(C(=O)Nc2ccc(C)cc2C)c1C [Compound 33] | 1 to 10
33 | Cc1ccc(NC(=O)c2sc(N)c(C(=O)OC(C)(C)C)c2C)c(C)c1 [Compound 34, tert-Butyl 2-amino-5-[(2,4-dimethylphenyl)carbamoyl]-4-methylthiophene carboxylate] | 1 to 10
34 | COC(=O)c1c(N)sc(C(=O)Nc2ccccc2OC)c1C [Compound 35, Methyl 2-amino-5-[(2-methoxyphenyl)carbamoyl]-4-methylthiophene-3-carboxylate] | 1 to 10
